Assay results taken from PubChem BioAssay AID330 (DTP/NCI, 2004).
Several values for one entry are separate records, joined by “and”; a condition that tells them apart may be missing. Identical values can stand only once. Toxic doses and inconclusive results are not listed. The calls were made as follows: active = survival T/C of 150% or more; inactive = T/C below 125% in these data.

Tested on: P388 leukemia ip, CD2F1 mice, survival T/C
Assay: NCI In Vivo Anticancer Drug Screen. Data for tumor model P388 Leukemia (intraperitoneal) in CD2F1 (CDF1) mice
Conditions: endpoint: median survival time, higher = longer survival
In short: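 Mice carrying the transplanted tumor received test compound or vehicle. Survival was recorded in each group, and the value is the treated-group measurement divided by that of the vehicle-treated control group.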

[1] = dose: 50.0 mg/kg/injection, schedule: Q01DX005 (ip), vehicle: saline with Tween-80
[2] = dose: 100.0 mg/kg/injection, schedule: Q01DX005 (ip), vehicle: saline with Tween-80
[3] = dose: 60.0 mg/kg/injection, schedule: Q01DX005 (ip), vehicle: saline with Tween-80
[4] = dose: 120.0 mg/kg/injection, schedule: Q01DX005 (ip), vehicle: saline with Tween-80
[5] = dose: 240.0 mg/kg/injection, schedule: Q01DX005 (ip), vehicle: saline with Tween-80

Measured: T/C

NC(=S)N/N=C\Cn1cc([N+](=O)[O-])c(=O)[nH]c1=O
inactive: dose: 50.0 mg/kg/injection, schedule: Q01DX005 (ip), vehicle: Klucel (hydroxypropylcellulose) (HPC) 101 % of control | dose: 100.0 mg/kg/injection, schedule: Q01DX005 (ip), vehicle: Klucel (hydroxypropylcellulose) (HPC) 87 % of control

CCOC(=O)CCC(NC(=O)c1ccc(NCc2ccc3nc(N)nc(N)c3c2C)cc1)C(=O)OCC (stereo not given)
active: dose: 0.03 mg/kg/injection, schedule: Q01DX009 (ip), vehicle: saline + alcohol 153 % of control and 162 % of control | dose: 0.06 mg/kg/injection, schedule: Q01DX009 (ip), vehicle: saline + alcohol 170 % of control
inactive: dose: 0.01 mg/kg/injection, schedule: Q01DX009 (ip), vehicle: saline + alcohol 108 % of control and 109 % of control | dose: 0.02 mg/kg/injection, schedule: Q01DX009 (ip), vehicle: saline + alcohol 98 % of control and 113 % of control | dose: 0.06 mg/kg/injection, schedule: Q01DX001 (ip), vehicle: saline + alcohol 100 % of control and 88 % of control | dose: 0.13 mg/kg/injection, schedule: Q01DX001 (ip), vehicle: saline + alcohol 111 % of control and 117 % of control | dose: 0.25 mg/kg/injection, schedule: Q01DX001 (ip), vehicle: saline + alcohol 109 % of control and 110 % of control

CCCCCC(CN(C)C)C(=O)/C=C/c1ccc(C)cc1 (stereo not given)
inactive: dose: 12.5 mg/kg/injection, schedule: Q01DX005 (ip), vehicle: saline with Tween-80 98 % of control | dose: 25.0 mg/kg/injection, schedule: Q01DX005 (ip), vehicle: saline with Tween-80 100 % of control | [1] 106 % of control and 97 % of control | [2] 98 % of control

COc1cccc(CN2CCN(N=O)CC2)c1
inactive: dose: 25.0 mg/kg/injection, schedule: Q01DX009 (ip), vehicle: Klucel (hydroxypropylcellulose) (HPC) 105 % of control | dose: 50.0 mg/kg/injection, schedule: Q01DX009 (ip), vehicle: Klucel (hydroxypropylcellulose) (HPC) 97 % of control | dose: 100.0 mg/kg/injection, schedule: Q01DX009 (ip), vehicle: Klucel (hydroxypropylcellulose) (HPC) 95 % of control | dose: 200.0 mg/kg/injection, schedule: Q01DX009 (ip), vehicle: Klucel (hydroxypropylcellulose) (HPC) 105 % of control

CN1C(c2ccccc2)=C(C#N)C(=O)CC(c2ccccc2)N1C (stereo not given)
inactive: dose: 5.0 mg/kg/injection, schedule: Q01DX005 (ip), vehicle: saline with Tween-80 102 % of control | dose: 10.0 mg/kg/injection, schedule: Q01DX005 (ip), vehicle: saline with Tween-80 105 % of control | dose: 20.0 mg/kg/injection, schedule: Q01DX005 (ip), vehicle: saline with Tween-80 102 % of control | dose: 40.0 mg/kg/injection, schedule: Q01DX005 (ip), vehicle: saline with Tween-80 102 % of control | [1] 101 % of control | [3] 120 % of control | [2] 93 % of control | [4] 103 % of control | dose: 200.0 mg/kg/injection, schedule: Q01DX005 (ip), vehicle: saline with Tween-80 104 % of control | [5] 94 % of control

Oc1ccc(Cl)cc1CN1CCN(Cc2cc(Cl)ccc2O)CC1
inactive: dose: 15.0 mg/kg/injection, schedule: Q01DX005 (ip), vehicle: saline with Tween-80 100 % of control | dose: 30.0 mg/kg/injection, schedule: Q01DX005 (ip), vehicle: saline with Tween-80 97 % of control | [3] 89 % of control

COC(=O)n1c(=O)ccc(=O)n1C(=O)OC
inactive: dose: 50.0 mg/kg/injection, schedule: Q01DX001 (ip), vehicle: saline 100 % of control and 103 % of control | dose: 100.0 mg/kg/injection, schedule: Q01DX001 (ip), vehicle: saline 98 % of control and 100 % of control and 106 % of control | dose: 200.0 mg/kg/injection, schedule: Q01DX001 (ip), vehicle: saline 100 % of control and 106 % of control and 115 % of control | dose: 400.0 mg/kg/injection, schedule: Q01DX001 (ip), vehicle: saline 100 % of control and 112 % of control and 122 % of control

O=C1C=CC(=O)C1=Cc1ccc([N+](=O)[O-])cc1
inactive: dose: 2.5 mg/kg/injection, schedule: Q04DX002 (ip), vehicle: saline with Tween-80 100 % of control | dose: 5.0 mg/kg/injection, schedule: Q04DX002 (ip), vehicle: saline with Tween-80 104 % of control | dose: 10.0 mg/kg/injection, schedule: Q04DX002 (ip), vehicle: saline with Tween-80 101 % of control | dose: 25.0 mg/kg/injection, schedule: Q04DX002 (ip), vehicle: saline with Tween-80 96 % of control | dose: 50.0 mg/kg/injection, schedule: Q04DX002 (ip), vehicle: saline with Tween-80 98 % of control

C=C(C)C(=O)Nc1ccc2nn(-c3ccccc3O)nc2c1
inactive: dose: 50.0 mg/kg/injection, schedule: Q01DX009 (ip), vehicle: saline 93 % of control | dose: 100.0 mg/kg/injection, schedule: Q01DX009 (ip), vehicle: saline 86 % of control | dose: 200.0 mg/kg/injection, schedule: Q01DX009 (ip), vehicle: saline 94 % of control

OCC1CC2C3CC(CO)C(C3)C2C1 (stereo not given)
inactive: [3] 105 % of control | [4] 100 % of control | [5] 98 % of control
